The supplement of paper PMC4862054

Key:
Details in all cases: incubation time: 72 h
DU-4475 [1] = assay: drug sensitivity score (DSS), CellTox Green (DSS (AUC-based score)); higher = stronger drug effect (viability inhibition or cytotoxicity); extreme values may be limits of the assay
Method in brief: (§1)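 Using 20 µl of cell suspension per well, breast cancer cell lines were seeded into 384-well plates pre-loaded with compound at 5 concentrations in 10-fold steps across a compound-specific 10,000-fold range. Incubation lasted 72 h, after which CellTox Green fluorescence at 485/520 nm and then CellTiter-Glo luminescence, following 10 min at room temperature, were recorded. Each plate was normalised to 0.1 % DMSO and a positive kill control before the drug sensitivity score was derived from the area under the fitted dose-response curve.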

MFM-223 [2] = assay: as above
Method in brief: as §1

HDQ-P1 = assay: as above
Method in brief: as §1

MCF-10A = assay: as above
Method in brief: as §1

CAL-51 = assay: as above
Method in brief: as §1

MDA-MB-231 [3] = assay: as above
Method in brief: as §1

CAL-85-1 [4] = assay: as above
Method in brief: as §1

Hs578T [5] = assay: as above
Method in brief: as §1

MDA-MB-453 = assay: as above
Method in brief: as §1

BT-549 [6] = assay: as above
Method in brief: as §1

BT-474 [7] = assay: as above
Method in brief: as §1

CAL-148 = assay: as above
Method in brief: as §1

HCC1143 [8] = assay: as above
Method in brief: as §1

HCC1937 [9] = assay: as above
Method in brief: as §1

MDA-MB-436 = assay: as above
Method in brief: as §1

DU-4475 [10] = assay: drug sensitivity score (DSS), CellTiter-Glo (DSS (AUC-based score)); higher = stronger drug effect (viability inhibition or cytotoxicity); extreme values may be limits of the assay
Method in brief: as §1

MFM-223 [11] = assay: as above
Method in brief: as §1

MDA-MB-468 = assay: as above
Method in brief: as §1

MDA-MB-231 [12] = assay: as above
Method in brief: as §1

CAL-85-1 [13] = assay: as above
Method in brief: as §1

Hs578T [14] = assay: as above
Method in brief: as §1

BT-549 [15] = assay: as above
Method in brief: as §1

BT-474 [16] = assay: as above
Method in brief: as §1

HCC1143 [17] = assay: as above
Method in brief: as §1

CAL-120 = assay: as above
Method in brief: as §1

HCC1937 [18] = assay: as above
Method in brief: as §1

HCC1599 = assay: as above
Method in brief: as §1

SMILES	drug sensitivity score (DU-4475 [1])	drug sensitivity score (MFM-223 [2])	drug sensitivity score (HDQ-P1)	drug sensitivity score (MCF-10A)	drug sensitivity score (CAL-51)	drug sensitivity score (MDA-MB-231 [3])	drug sensitivity score (CAL-85-1 [4])	drug sensitivity score (Hs578T [5])	drug sensitivity score (MDA-MB-453)	drug sensitivity score (BT-549 [6])	drug sensitivity score (BT-474 [7])	drug sensitivity score (CAL-148)	drug sensitivity score (HCC1143 [8])	drug sensitivity score (HCC1937 [9])	drug sensitivity score (MDA-MB-436)	drug sensitivity score (DU-4475 [10])	drug sensitivity score (MFM-223 [11])	drug sensitivity score (MDA-MB-468)	drug sensitivity score (MDA-MB-231 [12])	drug sensitivity score (CAL-85-1 [13])	drug sensitivity score (Hs578T [14])	drug sensitivity score (BT-549 [15])	drug sensitivity score (BT-474 [16])	drug sensitivity score (HCC1143 [17])	drug sensitivity score (CAL-120)	drug sensitivity score (HCC1937 [18])	drug sensitivity score (HCC1599)
CC(C)C[C@@H](C(=O)N[C@H](C(=O)OC1CCCC1)c1ccccc1)[C@H](O)C(=O)NO [Tosedostat]	0	0	10.1	0	15.2	26.6	21.8	1.64	0	9.06	2.81	0	1.52	0	10.1	0	6.14	19.1	11.1	12.7	2.74	12.3	16.9	5.96	12.7	8.46	0
O=C(/C=C/c1cccc(S(=O)(=O)Nc2ccccc2)c1)NO [Belinostat]	3.83	4.75	0	10.5	13	17.8	11.5	6.63	0.0261	0	8.01	8.43	0	0	0	15.9	13.9	14.7	14	12.6	11	9.61	14.9	11.6	13.1	7.92	12.1
CN(C)c1nc(N(C)C)nc(N(C)C)n1 [Altretamine]	0	0	0	0	0	0	0	0	0	0	0	0	0	0	0	0	0	0	0	0	0	0	0	0	0	0	0
CCc1c2c(nc3ccc(OC(=O)N4CCC(N5CCCCC5)CC4)cc13)-c1cc3c(c(=O)n1C2)COC(=O)[C@]3(O)CC [Irinotecan]	0	0	0	0	10.7	0	0	1.06	0	0	0	11.8	0	0	0	4.98	0	7.12	0	0	0	4	1.83	0	2.72	0	1.9
N#Cc1ccc(COC[C@H]2O[C@@H](n3c(NCc4ccc(Cl)c(Cl)c4)nc4c(N)ncnc43)[C@H](O)[C@@H]2O)cc1	0	3.38	0	0	0	0	2.89	0	0	0	0	0	0	0	0	2.77	0.407	2.09	0	0	1.73	3.44	3.43	1.09	0	3.1	0
Cc1cc(Nc2cc(CN3CCOCC3)c3nc(C)c(Cc4ccc(Cl)cc4F)n3n2)n[nH]1 [Gandotinib]	0	0	0	0	7.6	0	3.97	7.9	0	0	0	0	0	0	0.139	0.384	5.57	9.64	7.43	4.82	6.39	6.71	6.22	2.62	3.77	1.28	0
Cc1[nH]c2ccccc2c1CCNCc1ccc(/C=C/C(=O)NO)cc1 [Panobinostat]	6.99	6.53	3.86	1.6	18.2	19.9	17.3	18.5	4.41	0	14.6	20.9	6.53	14.2	0	19.2	13.2	15.2	18.2	16.5	15.1	11.1	16.6	15.1	12.9	9.22	14.7
